Reference: US5104880A, “Huperzine a analogs as acetylcholinesterase inhibitors” (Mayo Foundation for Medical Education and Research, priority 1991, dated 1992)
Like-named read-outs stand apart in the source and are kept apart here.

Experiments:
[1] = system: AChE; settings: vs (±)-huperzine A; cited from earlier work
[2] = system: mice; settings: cited from earlier work
[3] = system: squirrel monkeys; settings: cited from earlier work
[4] = system: animals; settings: studies performed in China; cited from earlier work
[5] = system: myasthenia gravis; settings: 128 patients; cited from earlier work
[6] = molecular target: T1, AChE (Rattus norvegicus, UniProt P37136); assay: biochemical
T1 construct: from tissue; host or cells: rat hippocampus, crude homogenate (P2 synaptosome-rich fraction)
Experimental: *Assayed using rat hippocampal crude homogenates over a concentration
in 10% DMSO made up in the incubation buffer medium. In addition, those
hydrochloric acid and sonicated briefly until they dissolved in the
solution. In each case, the control medium always consisted of the same
ingredients as those which were used to dissolve the compound under
The activity of these new compounds was assayed using AChE isolated from rat brain. […] Rats were killed by decapitation and the brains were extirpated rapidly. […] Homogenates were centrifuged at 1000×g for 10 min to remove cell nuclei and heavy debris. […] A portion of this synaptosome-rich fraction was added in triplicate to ice-cold pH 7.4 Krebs-Ringer medium.
Assay of AChE was carried out according to the method described in C. […] Tissue homogenate was incubated for 30 min at 30° C. in a final volume of […] containing 75 mM sodium phosphate buffer, pH 7.0, and 1.5 mM [^14 C]acetylcholine (1.9 mCi/mmol). […] The tubes were vortexed for 10 sec, then centrifuged for 1 min. The bottom aqueous layer was quickly frozen in a dry ice/acetone bath, and the top organic layer aspirated off. Finally, the buffer was allowed to thaw, and a 25 μl portion was counted for the amount of [^14 C]acetate formed. The amount of residual [^14 C]acetylcholine left in the buffer by the extraction step alone was determined by subtracting from the tissue sample values of [^14 C]acetylcholine measured in a blank sample that contained buffer and substrate, but no tissue.

[7] = system: AChE; settings: as AChE inhibitors for treatment of AD; cited from earlier work
[8] = system: AChE; settings: 0.65 mg/kg i.m.; cited from earlier work
[9] = 0.65 mg/kg i.m.; cited from earlier work
[10] = system: Alzheimer's Disease; settings: cited from earlier work

T1 sequence (P37136 32-614): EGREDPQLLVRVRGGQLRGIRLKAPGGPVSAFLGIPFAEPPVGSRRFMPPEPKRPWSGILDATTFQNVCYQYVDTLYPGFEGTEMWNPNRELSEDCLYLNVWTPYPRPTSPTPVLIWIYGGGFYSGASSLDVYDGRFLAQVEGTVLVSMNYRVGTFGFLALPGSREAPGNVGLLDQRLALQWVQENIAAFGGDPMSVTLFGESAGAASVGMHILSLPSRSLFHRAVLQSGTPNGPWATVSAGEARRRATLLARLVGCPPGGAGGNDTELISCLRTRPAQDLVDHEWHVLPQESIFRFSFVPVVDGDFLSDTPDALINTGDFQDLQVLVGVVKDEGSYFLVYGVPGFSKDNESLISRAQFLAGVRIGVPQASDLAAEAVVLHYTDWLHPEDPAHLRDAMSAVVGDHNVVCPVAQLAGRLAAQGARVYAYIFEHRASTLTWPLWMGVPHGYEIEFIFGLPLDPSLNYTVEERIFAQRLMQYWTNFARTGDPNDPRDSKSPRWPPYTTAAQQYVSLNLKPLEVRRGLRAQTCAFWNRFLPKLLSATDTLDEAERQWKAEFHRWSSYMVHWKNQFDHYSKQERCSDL

C/C=C1\C2C=C(C)CC1(CN)c1ccc(=O)[nH]c1C2 (stereo not shown)
times less potent than (±)-huperzine A as an inhibiter of AChE [1]: about 166 times

CC=C1C2C=C(C)CC1(N)c1ccc(=O)[nH]c1C2 (single isomer, unassigned; (-)) [Compound 1a, (-)-Huperzine A]
cognition enhancement [2]: effective cognition enhancer
cognition enhancement [3]: effective cognition enhancer
memory and learning [4]: improve memory and learning in animals
control of the clinical manifestations of myasthenia gravis (cases) [5]: 99%

CC=C1C2CCCC1(N)c1ccc(=O)[nH]c1C2 (stereo not shown) [Compound 3, C15 -desmethyl-(C8 -C15)dihydrohuperzine]
IC50 ([6]; AChE isolated from rat brain, read-out: IC50 value (AChE)): 1.3e-05 M
fold less potent than natural huperzine A ([6]; considering the racemic nature of compound 3): at least fifty-fold

CC1=CC2Cc3[nH]c(=O)ccc3C(N)(C1)/C2=C/Cl (stereo not shown) [Compound 13, 11-DESMETHYL-11-CHLORO-HUPERZINE A]
IC50 ([6]; AChE IC50 (M)*, Table I, rat hippocampal crude homogenates, 10^-11 M to 10^-3 M, 10% DMSO in buffer): 8.09e-07 M

CC1=C[C@H]2Cc3[nH]c(=O)ccc3[C@]3(C1)NCCC[C@H]23 [huperzine B]
comparison with THA and physostigmine [7]: appear superior to THA and physostigmine
memory and learning [4]: improve memory and learning in animals

CNC(=O)Oc1ccc2c(c1)[C@]1(C)CCN(C)[C@@H]1N2C [physostigmine]
maximal duration of action (AChE inhibitory action) [8]: ≤ 60 min
side effects [9]: causes considerable side effects
cognitive improvement [10]: modest cognitive improvement
